Consider 4 compounds from patent US20240366729A1, “COMBINATION OF A NURR1 AGONIST WITH AT LEAST ONE OF AN ALDOSTERONE ANTAGONIST, AN INSULIN MODULATOR AND A SULFONYLUREA” (GENESIS PHARMA SA, priority 2021, published 2024).

Each structure is given as a SMILES string. “Also recorded” adds a separate entry of the source.

Data set [1] relates to rat model of transient middle cerebral artery occlusion (t-MCAO). The data set can be described thus: Neurological score (NSS), rat t-MCAO model, 7-day treatment (Example 2). In kind it is in vivo. The conditions noted are these: for Neurological score (NSS) vs vehicle: Day 1 and Day 8. As for the experimental part: The study was performed in cycles, each one containing at least nine rats. Test compounds were administrated 20 minutes before reperfusion and twice a day thereafter. On Day 1, stroke was induced by the t-MCAO procedure. Neurological score (NSS), was performed before surgery, 24 hours and 7 days after t-MCAO. At study termination brains were harvested, sliced into five 2 mm thick coronal sections and stained with TTC for infarct size measurement. The experimental design and timeline for the two parts of the study are presented below.
The right Common Carotid artery (CCA) was exposed through a midline neck incision and carefully dissected free from surrounding nerves and fascia—from its bifurcation to the base of the skull. The Occipital artery branches of the External Carotid artery (ECA) were isolated, and these branches were dissected and coagulated. The ECA was dissected further distally and coagulated along with the terminal lingual and maxillary artery branches, just before their bifurcation. The Internal Carotid artery (ICA) was isolated and carefully separated from the adjacent Vagus nerve, and the Pterygopalatine artery was ligated close to its origin with a 5-0 nylon suture. […] The surgical wound was closed and the animals were returned to their cages to recover from anesthesia. One hour and half after occlusion rats were re-anesthetized and monofilament was withdrawn to allow reperfusion. The surgical wound was closed and rats were returned to their cages. Following surgery, animals were placed on a heating pad until their recovery from the anesthesia. All animals received subcutaneous Meloxicam at 2 mg/kg before and after surgery, daily during the next two days. They were observed frequently on the day of t-MCAO surgery and at least once daily thereafter.
Treatment was start 20 minutes before reperfusion and then at the end of the same day, via IP administration of the test compounds. Treatment continued twice a day for six consecutive days thereafter.
Neuroscore was graded on a scale of 0 to 18 (in which normal score is 0 and maximal deficit score is represented by 18).

Data set [2] shares this test system. Kind of data set: Brain infarct size (TTC staining, ImageJ), rat t-MCAO model, Example 2. In kind it is in vivo. The settings on record: at termination; amodiaquine 0.5 mg/kg, potassium canrenoate 0.33 mg/kg, glibenclamide 1 μg/kg, exenatide 0.05 μg/kg; vehicle 38%.
Data set [3] concerns rodent models of subarachnoid hemorrhage. The settings on record: loading dose 10 μg/kg intraperitoneally, then infusion 200 ng/hr for 24 hours or one week; cited from earlier work.
The test system of data set [4] is rat model of stroke (middle cerebral artery occlusion). The conditions noted are these: 10 μg/kg IP loading dose plus 200 ng/h subcutaneous infusion beginning 4.5 h or 10 h after onset of ischemia; cited from earlier work.
For data set [5], the system named is experimental intracerebral hemorrhage in mice. The conditions noted are these: 10 μg either before or at 2 h after hemorrhage; cited from earlier work.
Data set [6] deals with rodent models of brain ischemia and reperfusion injury. The conditions noted are these: 1 mg/kg administered 10 min before reperfusion; cited from earlier work.
The subject of data set [7] is rat thromboembolic model of stroke. The settings on record: continuous infusion 75 ng/h; 7 days post middle cerebral artery occlusion; cited from earlier work.
The subject of data set [8] is collagenase-induced intracerebral hemorrhage. The conditions noted are these: 10 μg/kg loading dose followed by 200 ng/h for up to 7 days; cited from earlier work.
For data set [9], the system named is patients with acute hemispheric infarction. The conditions noted are these: oral administration; cited from earlier work.
Data set [10] deals with patients with large hemispheric infarctions. The conditions noted are these: intravenous 0.13 mg bolus, 0.16 mg/h for 6 h, then 0.11 mg/h for 66 h; cited from earlier work.
Data set [11] has as its system rat superior mesenteric arteries. The settings on record: cited from earlier work.
Data set [12] relates to mouse model of intracerebral haemorrhage (ICH). The settings on record: 40 mg/kg, cited from earlier work.
The target in a further data set is Nurr1 (Homo sapiens, UniProt P43354). The conditions noted are these: through physical interaction with its ligand binding domain (LBD); cited from earlier work.
Sequence of Nurr1 (P43354 whole entry, species assumed, the tested form may be a part): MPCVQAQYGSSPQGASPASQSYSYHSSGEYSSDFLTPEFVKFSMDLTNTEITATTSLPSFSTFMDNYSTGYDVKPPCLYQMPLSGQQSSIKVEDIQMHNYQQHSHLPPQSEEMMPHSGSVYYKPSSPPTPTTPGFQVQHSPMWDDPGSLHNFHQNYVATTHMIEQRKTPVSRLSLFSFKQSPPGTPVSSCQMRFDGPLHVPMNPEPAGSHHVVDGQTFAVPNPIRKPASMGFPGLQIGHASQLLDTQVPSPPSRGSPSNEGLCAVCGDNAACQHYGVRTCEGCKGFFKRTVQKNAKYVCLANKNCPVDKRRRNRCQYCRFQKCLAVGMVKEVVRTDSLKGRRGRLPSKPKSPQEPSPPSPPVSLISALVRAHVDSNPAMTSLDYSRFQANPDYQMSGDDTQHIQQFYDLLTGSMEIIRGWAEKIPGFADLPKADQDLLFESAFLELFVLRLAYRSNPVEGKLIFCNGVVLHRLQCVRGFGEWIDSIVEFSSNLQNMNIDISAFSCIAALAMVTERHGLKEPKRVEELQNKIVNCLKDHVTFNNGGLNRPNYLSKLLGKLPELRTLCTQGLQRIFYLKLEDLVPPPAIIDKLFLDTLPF

Take `C[C@]12CCC(=O)C=C1C=C[C@@H]1[C@@H]2CC[C@@]2(C)[C@H]1CC[C@@]2(O)CCC(=O)[O-].[K+]` [Potassium canrenoate, potassium 3-[(8R,9S,10R,13S,14S,17R)-17-hydroxy-10,13-dimethyl-3-oxo-2,8,9,11,12,14,15,16-octahydro-1H-cyclopenta[a]phenanthren-17-yl]propanoate]: the “Neurological score (NSS) vs vehicle, Part II” value in data set [1] (Day 1, amodiaquine 0.5 mg/kg, potassium canrenoate 0.33 mg/kg, glibenclamide 1 μg/kg, exenatide 0.05 μg/kg, 20 min before reperfusion and twice a day) is “Statistically significant differences”. For the same compound, the “Brain infarct size vs vehicle, Part II” value in data set [2] is “Statistically significant differences in infarct size; also recorded: Less prominent decrease in infarct volume”.
Consider `COc1ccc(Cl)cc1C(=O)NCCc1ccc(S(=O)(=O)NC(=O)NC2CCCCC2)cc1` [Glibenclamide, 5-chloro-N-[2-[4-(cyclohexylcarbamoyl-sulfamoyl)phenyl]ethyl]-2-methoxybenzamide], for which the “Efficacy in subarachnoid hemorrhage” value in [3] was “effective”. For the same compound, in [4], the “Hemispheric swelling, mortality and Garcia scores” value was “significantly reduced hemispheric swelling at 24 h and 48-h mortality and improved Garcia scores at 48 h”. Moreover, the “Cerebral edema, BBB disruption and neurological deficit” value in [5] is “alleviate cerebral edema, disrupted BBB, and neurological deficit”. Further, in data set [6], the “Efficacy in brain ischemia and reperfusion injury” value is “effective”. The “Reduction of cerebral edema, infarct volume and mortality” value in data set [7] is on record as 50%. For the same compound, in [8], the “Efficacy in collagenase intracerebral hemorrhage” value is “not effective”. In data set [9], the 6-month functional outcome was “did not substantially improve 6-month functional outcome” and the Safety of treatment entry is “safe”. Also, the “Brain swelling (midline shift), MMP-9, functional outcomes and mortality” value in data set [10] is listed as “promising findings”.
In the case of `CCN(CC)Cc1cc(Nc2ccnc3cc(Cl)ccc23)ccc1O` [Amodiaquine, 4-[(7-chloroquinolin-4-yl)amino]-2[(diethylamino)methyl]-phenol], the “Neurological score (NSS) vs vehicle” value in data set [1] (amodiaquine 0.5 mg/kg (Group 5M), 20 min before reperfusion and twice a day) is recorded as “Statistically significant differences; also recorded: statistically significant NSS improvement”; in data set [1] (amodiaquine 7 mg/kg (Group 3M), 20 min before reperfusion and twice a day), “Statistically significant differences; also recorded: statistically significant NSS improvement”; in data set [1] (amodiaquine 20 mg/kg (Group 2M), 20 min before reperfusion and twice a day), “Statistically significant differences; also recorded: statistically significant NSS improvement”. Moreover, the “Neurological score (NSS) vs vehicle, monotherapy at different doses” value in [1] (amodiaquine 0.5-20 mg/kg) is “improved significantly and dose dependently the neurological score”. Besides, in data set [11], the Vasorelaxation entry is “induce vasorelaxation”. Moreover, the “Perihematomal activation of microglia/macrophages and astrocytes” value in data set [12] (i.p. daily from 3 h after ICH induction) is “diminished perihematomal activation of microglia/macrophages and astrocytes”. Moreover, the “ICH-induced mRNA expression of IL-1β, CCL2 and CXCL2” value in [12] (i.p. daily) was “suppressed ICH-induced mRNA expression of IL-1β, CCL2 and CXCL2”. In data set [12] (i.p. daily), the Motor dysfunction entry is “ameliorated motor dysfunction”. At Nurr1, the “Transcriptional function of Nurr1” value is listed as “stimulate the transcriptional function of Nurr1”.
Consider `CCN(CC)CCCC(C)Nc1ccnc2cc(Cl)ccc12` (stereo not drawn) [chloroquine], for which the “Transcriptional function of Nurr1” value on Nurr1 is “stimulate the transcriptional function of Nurr1”.
